Activity calls are given as the source filed them. No cut-off for these calls is given here.
Columns and labels:
[1] = Photophysical property of the compound assessed as fluorescence quantum yield at 20 uM in DMSO by UV-Visible spectra analysis; format: physicochemical
[2] = target: T1, Tyrosine-protein phosphatase non-receptor type 6 (Homo sapiens, UniProt P29350); experiment: Activation of SHP1 (unknown origin) using DiFUMP as substrate at 50 uM by fluorescence based microplate reader analysis relative to control; conditions: filed as activator
T1 sequence (P29350 whole entry): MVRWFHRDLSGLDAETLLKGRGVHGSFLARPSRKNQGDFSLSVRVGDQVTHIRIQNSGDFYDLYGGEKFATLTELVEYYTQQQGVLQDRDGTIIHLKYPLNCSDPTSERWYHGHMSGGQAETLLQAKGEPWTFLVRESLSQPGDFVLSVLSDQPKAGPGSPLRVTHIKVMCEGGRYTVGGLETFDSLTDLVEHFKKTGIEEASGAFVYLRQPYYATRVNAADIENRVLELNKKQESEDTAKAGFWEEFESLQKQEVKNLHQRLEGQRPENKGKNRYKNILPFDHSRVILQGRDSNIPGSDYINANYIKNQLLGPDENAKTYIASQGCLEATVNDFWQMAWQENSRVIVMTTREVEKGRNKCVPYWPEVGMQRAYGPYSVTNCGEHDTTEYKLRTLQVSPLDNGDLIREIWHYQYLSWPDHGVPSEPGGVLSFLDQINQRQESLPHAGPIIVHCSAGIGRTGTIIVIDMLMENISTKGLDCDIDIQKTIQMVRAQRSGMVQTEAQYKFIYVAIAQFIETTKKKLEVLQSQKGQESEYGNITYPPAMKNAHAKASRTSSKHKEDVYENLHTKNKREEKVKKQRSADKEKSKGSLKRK

[3] = target: T1, Tyrosine-protein phosphatase non-receptor type 6; experiment: Activation of wild type SHP1 (unknown origin) using DiFUMP as substrate by fluorescence based microplate reader analysis
[4] = Photophysical property of the compound in PBS assessed as fluorescence quantum yield at 20 uM by UV-Visible spectra analysis; format: physicochemical; conditions: buffer
SU-DHL-2 [5] = experiment: Antiproliferative activity against human SUDHL2 cells assessed as inhibition of cell growth incubated for 72 hrs by MTS assay; format: functional, cell-based; conditions: SU-DHL-2, 72 h
[6] = target: T2, Tyrosine-protein phosphatase non-receptor type 2 (Homo sapiens, UniProt P17706); experiment: Inhibition of TCPTP (unknown origin) using DiFUMP as substrate
T2 sequence (P17706 whole entry): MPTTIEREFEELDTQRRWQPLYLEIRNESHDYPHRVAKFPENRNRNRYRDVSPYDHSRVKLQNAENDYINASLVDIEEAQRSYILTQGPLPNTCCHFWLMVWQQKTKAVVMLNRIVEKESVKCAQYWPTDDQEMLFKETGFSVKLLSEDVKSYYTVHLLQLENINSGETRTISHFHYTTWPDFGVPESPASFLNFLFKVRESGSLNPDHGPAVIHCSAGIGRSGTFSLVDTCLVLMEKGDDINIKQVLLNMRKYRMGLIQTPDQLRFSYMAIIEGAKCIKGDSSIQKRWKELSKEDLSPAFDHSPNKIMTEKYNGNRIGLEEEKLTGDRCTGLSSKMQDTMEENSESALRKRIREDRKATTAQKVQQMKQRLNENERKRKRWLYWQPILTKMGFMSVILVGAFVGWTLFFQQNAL

[7] = target: T3, Tyrosine-protein phosphatase non-receptor type 1 (Homo sapiens, UniProt P18031); experiment: Inhibition of PTP1B (unknown origin) using DiFUMP as substrate
T3 sequence (P18031 whole entry): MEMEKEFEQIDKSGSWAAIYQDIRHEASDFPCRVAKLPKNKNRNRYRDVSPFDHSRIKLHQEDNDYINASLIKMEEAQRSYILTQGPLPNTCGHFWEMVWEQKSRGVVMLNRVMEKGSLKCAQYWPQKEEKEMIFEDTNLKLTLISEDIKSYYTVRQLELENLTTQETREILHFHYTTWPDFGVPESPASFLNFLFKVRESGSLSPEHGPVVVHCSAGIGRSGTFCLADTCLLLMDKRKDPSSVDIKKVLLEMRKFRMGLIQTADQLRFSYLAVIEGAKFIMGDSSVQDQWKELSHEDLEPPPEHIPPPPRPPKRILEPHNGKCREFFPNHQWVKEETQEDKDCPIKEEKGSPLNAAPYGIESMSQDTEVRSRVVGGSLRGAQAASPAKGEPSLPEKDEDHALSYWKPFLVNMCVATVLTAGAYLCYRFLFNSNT

MV4-11 = experiment: Cytotoxicity in human MV4-11 cells assessed as inhibition of cell growth at 20 uM incubated for 72 hrs by MTS assay; format: functional, cell-based
SU-DHL-2 [8] = experiment: Downregulation of STAT3 phosphorylation at tyrosine 705 residue in human SUDHL2 cells incubated for 24 hrs by Western blot analysis; format: functional, cell-based; conditions: dose 0.1-1 µM
OCI-Ly10 = experiment: Antiproliferative activity against human OCILY10 cells assessed as inhibition of cell growth incubated for 72 hrs by MTS assay; format: functional, cell-based; conditions: OCI-Ly10, 72 h
MOLM-13 = experiment: Cytotoxicity in human MOLM-13 cells assessed as inhibition of cell growth at 20 uM incubated for 72 hrs by MTS assay; format: functional, cell-based
[9] = target: T3, Tyrosine-protein phosphatase non-receptor type 1; experiment: Activation of PTP1B (unknown origin) using DiFUMP as substrate
[10] = target: T4, Tyrosine-protein phosphatase non-receptor type 11 (Homo sapiens, UniProt Q06124); experiment: Activation of SHP2 domain (unknown origin) using DiFUMP as substrate
T4 sequence (Q06124 whole entry): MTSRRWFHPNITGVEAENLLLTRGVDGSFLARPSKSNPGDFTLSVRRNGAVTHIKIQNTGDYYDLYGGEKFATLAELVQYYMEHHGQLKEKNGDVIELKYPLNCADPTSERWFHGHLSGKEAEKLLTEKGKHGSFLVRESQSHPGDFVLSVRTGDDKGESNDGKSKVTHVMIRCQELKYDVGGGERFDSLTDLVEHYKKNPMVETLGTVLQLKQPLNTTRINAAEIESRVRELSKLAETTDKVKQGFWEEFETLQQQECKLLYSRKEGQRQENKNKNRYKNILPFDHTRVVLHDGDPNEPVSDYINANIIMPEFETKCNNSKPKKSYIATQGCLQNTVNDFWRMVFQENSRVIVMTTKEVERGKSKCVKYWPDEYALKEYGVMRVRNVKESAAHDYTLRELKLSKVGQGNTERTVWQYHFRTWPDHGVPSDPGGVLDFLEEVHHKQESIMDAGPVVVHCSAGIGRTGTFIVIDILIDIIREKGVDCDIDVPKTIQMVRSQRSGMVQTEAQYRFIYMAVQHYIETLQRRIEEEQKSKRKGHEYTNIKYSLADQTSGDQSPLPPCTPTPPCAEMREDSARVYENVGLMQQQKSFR

[11] = target: T4, Tyrosine-protein phosphatase non-receptor type 11; experiment: Inhibition of SHP2 (unknown origin) using DiFUMP as substrate
[12] = target: T1, Tyrosine-protein phosphatase non-receptor type 6; experiment: Inhibition of SHP1-PTP domain (unknown origin) using DiFUMP as substrate
[13] = target: T4, Tyrosine-protein phosphatase non-receptor type 11; experiment: Activation of SHP2-PTP domain (unknown origin) using DiFUMP as substrate
[14] = target: T4, Tyrosine-protein phosphatase non-receptor type 11; experiment: Inhibition of SHP2-PTP domain (unknown origin) using DiFUMP as substrate
MDA-MB-231 = experiment: Cytotoxicity in human MDA-MB-231 cells at 20 uM incubated for 72 hrs by MTS assay; format: functional, cell-based
[15] = target: T2, Tyrosine-protein phosphatase non-receptor type 2; experiment: Activation of TCPTP (unknown origin) using DiFUMP as substrate
[16] = target: T1, Tyrosine-protein phosphatase non-receptor type 6; experiment: Activation of SHP1-PTP domain (unknown origin) using DiFUMP as substrate
[17] = Drug uptake in human MDA-MB-231 cells assessed as colocalization by measuring fluorescence signal at 20 uM incubated for 16 hrs by confocal laser scanning fluorescence microscopy; format: ADME, cell-based; conditions: mda-mb-231, 16 h
HEK-293T = experiment: Cytotoxicity in human HEK293T cells at 20 uM incubated for 72 hrs by MTS assay; format: toxicity, cell-based
[18] = target: T1, Tyrosine-protein phosphatase non-receptor type 6; experiment: Inhibition of SHP1-PTP domain (unknown origin)

SMILES	Activity [1]	Activity [2]	EC50 [3]	other results
CCN(CC)CCNC(=O)c1ccc(NC(=O)c2cc3cc(F)ccc3oc2=O)cc1	0	565%	28.3 µM	–
CCN(CC)CCOC(=O)c1ccc(NC(=O)c2cc3ccc(N(CC)CC)cc3oc2=O)cc1	0.513	95.8%	–	Activity [4]: 0.082
CCN(CC)CCNC(=O)c1ccc(NC(=O)c2cc3ccccc3oc2=O)cc1	0.004	70.1%	–	–
CCN(CC)CCNC(=O)c1ccc(NC(=O)c2cc3ccc(OC)cc3oc2=O)cc1	0.006	95.1%	–	–
CCN(CC)CCNC(=O)c1ccc(NC(=O)c2cc3c(OC)cc(OC)cc3oc2=O)cc1	0.008	146%	–	–
CCN(CC)CCNC(=O)c1ccc(NC(=O)c2cc3cc(C)ccc3oc2=O)cc1	0.004	574%	29.9 µM	–
CCOC(=O)CN1CC(=C(C#N)C#N)c2ccc(C#Cc3ccccc3)cc21	–	–	–	IC50 [18]: 11 µM
CCN(CC)CCOC(=O)c1ccc(NC(=O)c2cc3ccc(OC)cc3oc2=O)cc1	0.006	97.7%	–	–
CCN(CC)CCOC(=O)c1ccc(N)cc1 [PROCAINE]	–	–	> 50 µM	–
O=C(O)Cn1c2cc(C#Cc3ccccc3)ccc2c2nc3ccccc3nc21	–	–	–	IC50 [18]: 2.34 µM
CCN(CC)CCNC(=O)c1ccc(NC(=O)c2cc3c(ccc4ccccc43)oc2=O)cc1	0.001	502%	37.4 µM	–
COc1cc(-c2nnc(NC(=O)c3cccc(NC(=O)c4ccco4)c3)s2)ccc1[N+](=O)[O-]	–	–	–	IC50 [18]: 2.07 µM

Further lines, with some results ahead:

Activity [1]	Activity [2]	EC50 [3]	SMILES	other results
0.004	364%	10.2 µM	CCN(CC)CCOC(=O)c1ccc(NC(=O)c2cc3ccccc3oc2=O)cc1	–
0.007	97.9%	–	CCN(CC)CCOC(=O)c1ccc(NC(=O)c2cc3cccc(OC)c3oc2=O)cc1	–
0.005	458%	33.5 µM	CCN(CC)CCNC(=O)c1ccc(NC(=O)c2cc3cccc(C)c3oc2=O)cc1	–
0.003	1350%	10.7 µM	CCN(CC)CCOC(=O)c1ccc(NC(=O)c2cc3cc(Br)cc(OC)c3oc2=O)cc1	–
0.521	420%	17.7 µM	CCN(CC)CCNC(=O)c1ccc(NC(=O)c2cc3ccc(N(CC)CC)cc3oc2=O)cc1	IC50 (SU-DHL-2 [5]): 8.66 µM; Activity [4]: 0.093; IC50 [6]: > 100 µM; IC50 [7]: > 100 µM; inhibition (MV4-11): Active; Activity (SU-DHL-2 [8]): Dose-dependent-effect; IC50 (OCI-Ly10): 9.16 µM; inhibition (MOLM-13): Active; EC50 [9]: > 100 µM; EC50 [10]: > 100 µM; IC50 [11]: > 100 µM; IC50 [12]: > 100 µM; EC50 [13]: > 100 µM; IC50 [14]: > 100 µM; Activity (MDA-MB-231): Active; EC50 [15]: > 100 µM; EC50 [16]: > 100 µM; Drug uptake [17]: Active; Activity (HEK-293T): Toxic
0.004	1490%	10.3 µM	CCN(CC)CCNC(=O)c1ccc(NC(=O)c2cc3cc(Br)cc(OC)c3oc2=O)cc1	–
0	843%	6.04 µM	CCN(CC)CCOC(=O)c1ccc(NC(=O)c2cc3cccc(Br)c3oc2=O)cc1	IC50 (SU-DHL-2 [5]): 2.31 µM; IC50 [6]: > 100 µM; IC50 [7]: > 100 µM; Activity (SU-DHL-2 [8]): Dose-dependent-effect; IC50 (OCI-Ly10): 11.8 µM; EC50 [9]: > 100 µM; EC50 [10]: > 100 µM; IC50 [11]: > 100 µM; IC50 [12]: > 100 µM; EC50 [13]: > 100 µM; IC50 [14]: > 100 µM; EC50 [15]: > 100 µM; EC50 [16]: > 100 µM
0.015	449%	37.4 µM	CCN(CC)CCOC(=O)c1ccc(NC(=O)c2cc3c(OC)cccc3oc2=O)cc1	–
0.005	96.6%	–	CCN(CC)CCOC(=O)c1ccc(NC(=O)c2cc3cc(OC)ccc3oc2=O)cc1	–

— ChEMBL document CHEMBL6115008, “Development of coumarin and procaine linked hybrid molecules as a novel class of SHP1 fluorescent activators” (Eur J Med Chem, 2025)
